Source: ChEMBL document CHEMBL3301451, “MMV Malaria Box gametocyte functional viability assay screening”

How the values were obtained:
Type in all cases: functional
Parameters in all cases: concentration or dose not given beside the values
Plasmodium berghei = experiment: MMV: P. berghei-infected blood was withdrawn from mice by cardiac pucture before being immediately added to ookinete culture medium containing test compounds. 26 hr later, GFP-positive ookinetes were identified and counted by automated microscopy. All compounds were tested in 4 independent experiments and data presented here is the mean.
Plasmodium falciparum [1] = experiment: (§1) MMV: P. falciparum NF54 functionally mature Stage V gametocytes were incubated for 24 hr in the presence of the test compounds. Gamete formation was then triggered by addition of 2uM xantheurenic acid and temperature decrease to ~20C. Male gamete exflagellation was recorded and analysed by automated microscopy after 20 min. All compounds were tested in 4 independent experiments and data presented here is the mean.
Plasmodium falciparum [2] = experiment: as §1, with “Female” for “Male”, “formation” for “exflagellation”, “24 hr later” for “and analysed”, “detection of surface labelling of female gametes with a Cy3-conjugated antibody reactive to Pfs25.” for “after 20 min.”; settings: NF54, 24 h

Structure (SMILES)	inhibition (Plasmodium berghei) [%]	inhibition (Plasmodium falciparum [1]) [%]	inhibition (Plasmodium falciparum [2]) [%]
Oc1ccc(Br)cc1CN1CCN(Cc2ccc(Cl)cc2)CC1	-27.93	-54.3	-35.8
Nc1ccc(-c2nc3cc(Oc4ccc(Oc5ccc6[nH]c(-c7ccc(N)cc7)nc6c5)cc4)ccc3[nH]2)cc1	13.14	3.94	-54.1
CCC(c1ccccc1)c1nn2c(-c3cccs3)nnc2s1 (centres undefined)	-15.76	1.43	-48.4
CCOc1cc2c(cc1OCC)C(c1cc(Cl)c(O)c(OCC)c1)NCC2 (centres undefined)	-11.39	22.4	14.7
COc1ccc(-c2nonc2NC(=O)c2cccc(C)c2)cc1OC	-9.338	31.3	3.1
COc1cccc(Cn2c(Oc3ccccc3)nc3c2c(=O)n(C)c(=O)n3C)c1	-11.71	35.5	1.84
Cc1ccccc1OCCSc1nc2ccc(NC(=O)c3ccccc3)cc2s1	-15.11	5.46	-13.8
Cc1ccc(N2C(=O)C3C(C2=O)C2(c4ccccc4)C(=O)C3(c3ccccc3)C(c3ccccc3)=C2c2ccccc2)cc1 (centres undefined)	-15.1	21.2	-19.9
COc1cc(-c2nc(-c3ccccc3)c(-c3ccccc3)[nH]2)cc(OC)c1O	-13.75	5	-41.1
CCCCNCC(O)(c1ccc(Cl)cc1)c1ccc(Cl)cc1	10.56	5.76	-11
O=C(CCc1ccccc1)c1ccccc1OCC(O)CN1CCCCC1 (centres undefined)	-0.1506	22.9	-34.8
COc1ccc(C(C)=O)cc1N1C(=O)C2C(C1=O)C1(c3ccccc3)C(=O)C2(c2ccccc2)C(c2ccc(C)cc2)=C1c1ccc(C)cc1 (centres undefined)	-19.71	21.8	-9.11
CCOC(=O)c1c(C)n(-c2ccccc2)c2ccc(OC(=O)c3cc(OC)c(OC)c(OC)c3)cc12	-17.17	18.3	-31.5
Cc1ccc(C2CC(C(F)(F)F)n3nc(C(=O)N4CCN(C(c5ccccc5)c5ccccc5)CC4)cc3N2)cc1 (centres undefined)	12.55	8.58	-8.56
Br.CCN(CC)S(=O)(=O)c1ccc(-c2csc(Nc3ccc(C)c(C)c3)n2)cc1	-11.5	21.9	-51.5
CCN(CC)CCNc1ccnc2cc3ccccc3cc12.O=P(O)(O)O	2.138	9.43	-24
OC(CNC1CCCCC1)Cn1c2ccc(I)cc2c2cc(I)ccc21 (centres undefined)	-21.59	-12.3	-48
CCn1c(SCC(=O)Nc2cc(C(F)(F)F)ccc2Cl)nc2ccccc2c1=O	-2.806	22.5	-19.5
CNCCCNc1ccnc2cc(Cl)ccc12	0.238	-17.2	-3.53
CCN1CCN(c2cc(C)c3cc(NC(=O)c4ccc(OC)c(OC)c4)ccc3n2)CC1	-2.902	-3.72	-8.68
COc1ccccc1N1CCN(C(CNS(=O)(=O)c2ccc(Cl)cc2)c2cccnc2)CC1 (centres undefined)	-1.627	3.66	-39.2

Structure (SMILES)	inhibition (Plasmodium berghei) [%]	inhibition (Plasmodium falciparum [1]) [%]	inhibition (Plasmodium falciparum [2]) [%]
COc1ccc(C(=O)Nc2ccc(Cl)cc2C(=O)Nc2ccncc2)cc1	-4.155	14.4	-19.7
COc1ccc(C2N(C)c3ccccc3N2C)cc1	-4.492	10.4	24.3
CCOc1ccc(-c2nc(NC(=O)c3cccc(S(C)(=O)=O)c3)sc2C)cc1	-6.261	0.81	-21
CN(C)c1ccc(N=Cc2ccc(N3CCOCC3)cc2)cc1	4.978	34.2	-21.3
Cc1cccc(Nc2nc(N)c3ccccc3n2)c1.Cl	-25.03	-38.3	-22.2
CCCCc1c(CCC)c(=N)c2ccccc2n1C.I	-7.021	-57	-25.6
COc1ccc(C(=O)Nc2nonc2-c2ccc(OC)c(OC)c2)cc1Cl	1.319	36.3	-18.2
CCn1nc(-c2ccc(C(=O)OC)cc2)nc2c(=O)n(C)c(=O)nc1-2	17.71	25.3	-15.8
Cc1cc(Nc2ccc(OCc3ccccc3)cc2)nc2cc(O)ccc12	-6.891	32.7	6.66
Nc1ccn([C@@H]2O[C@H](CO)[C@@H](O)[C@H]2O)c(=O)n1 [CYTIDINE]	-17.3	-18.8	-25.7
CCCc1cc(O)c2c3c(c(=O)oc2c1)CN(C)CC3	-29.34	2.76	-29.9
CCOC(=O)C1(Cc2ccccc2)CCN(Cc2cccc(OC)c2O)CC1	-6.801	-10.2	-9.84
CCC(=O)Nc1nnc(Cc2ccc(OC)c(OC)c2)s1	-4.332	19.9	-4.58
CCCCCCc1cc(O)c2c3c(c(=O)oc2c1)CCC(C)C3 (centres undefined)	-17.21	-1.29	-7.13
COc1cccc(Nc2nc(NCCO)c3ccccc3n2)c1.Cl	-13.29	-137	-29.6
CCOC(=O)c1cnc2c(C)cc(C)cc2c1Nc1ccc(OC)c(OC)c1	1.422	25.9	-14.2
CCOc1cc(Cl)c(C(C)NC(=O)c2cccc(OC)c2)cc1OCC (centres undefined)	-8.297	3.61	-14.9
CC(=O)c1sc(NC(=O)Nc2ccc(C)cc2C)nc1C	-22.74	-39.7	-20.1
Cc1cc(Nc2ccc(Cl)cc2)n2nc(C(F)(F)F)nc2n1	-18.89	15.3	-10.6
Cc1ccc(NC(=O)Nc2cccc(Cl)c2)cc1F	-16.5	2.14	-4.87
COc1ccc(CCN2C(=O)c3[nH]nc(-c4cc(Cl)c(C)cc4O)c3C2c2ccccc2F)cc1 (centres undefined)	-13.65	-17.3	-34.2

Structure (SMILES)	inhibition (Plasmodium berghei) [%]	inhibition (Plasmodium falciparum [1]) [%]	inhibition (Plasmodium falciparum [2]) [%]
Cc1cccc(N2C(=O)C3C(C2=O)C2(c4ccccc4)C(=O)C3(c3ccccc3)C(c3ccc4c(c3)OCO4)=C2c2ccc3c(c2)OCO3)c1 (centres undefined)	-6.32	32.3	-2.01
COc1ccccc1CNC(=O)CCn1c(=O)[nH]c2ccsc2c1=O	-0.4809	22.3	-26.3
O=C(NC1CCCCC1)C(c1cccs1)N(CCc1ccccc1)C(=O)c1ccco1 (centres undefined)	-4.107	6.52	-15.1
Cc1ccc(S(=O)(=O)c2c(COC(=O)c3cccc(C)c3)c(-c3ccccc3)nn2C)cc1	-10.49	-0.37	-31.3
O=C(CCc1ccco1)NC1CCN(CC2(c3ccc(Cl)cc3)CCC2)CC1	1.599	39.4	-33.1
CCc1ccc(CNCC(O)c2ccccc2)cc1.Cl (centres undefined)	-12.46	-40.9	-20.9
COc1ccc(C2c3ccc4ccccc4c3Oc3ncn(CCCn4ccnc4)c(=N)c32)cc1OC (centres undefined)	36.85	17.5	-9.13
O=C(NC1CCN(Cc2ccccc2)CC1)c1cc(-c2ccncc2)nc2ccc(Cl)cc12	-9.022	-6.34	-10.1
CC(=O)c1ccc(NC(=O)CSc2nc(-c3ccccc3Cl)ns2)cc1	-19.34	33.1	2.09
CCN(CC)c1cc(C)c2cc(NC(=O)c3cccc(OC)c3)ccc2n1	-7.501	-1.32	-22.1
CC(C)=CCN1CCC(C(=O)Nc2ccc(-c3nc4ccccc4[nH]3)cc2)CC1	-16.54	-15.4	-19.7
COc1cccc(O)c1CN1CCC2(CCCN(Cc3ccc(F)cc3)C2)C1 (centres undefined)	0.1358	-5.07	-15.6
O=c1cc(NC2CCN(CCCc3ccccc3)CC2)c2cc(Cl)ccc2o1	7.737	-9.89	-4.85
CCOC(=O)c1c[nH]c2c(CC)cccc2c1=O	-1.306	21.5	8.74
Cc1ccc(C)c(Cn2c(N3CCC(C(=O)NCc4cccs4)CC3)nc3ccccc32)c1	-3.865	-124	9.01
CCCCc1ccc(NS(=O)(=O)c2cc3c4c(c2)CCN4C(=O)CC3)cc1	-6.551	15.5	-27.1
CCOc1c(Cl)cc(CNC(C)C(O)c2ccccc2)cc1OC (centres undefined)	-12.71	11.3	-16
CCOc1ccc(CCNC(=O)c2cccs2)cc1OCC	8.759	22	2.16
Cc1cc(C)cc(Nc2cc(C)nc3nc(C(F)(F)F)nn23)c1	-26.51	13.1	-17.3
COc1ccc(C(=O)Nc2ccc3nc(N4CCCCC4)cc(C)c3c2)cc1OC	-18.9	9.9	-48
OC(Cn1nnc2ccccc21)Cn1c2ccc(Br)cc2c2cc(Br)ccc21 (centres undefined)	-0.4033	33.4	-23.3
